{
  "source": "PubChem BioAssay (NCI)",
  "assay_in_all_cases": "NCI tumour cell line growth inhibition, 48 h",
  "key": {"[1]": {"test_system": "MDA-MB-435"}, "[2]": {"test_system": "NCI-H23 lung"}, "[3]": {"test_system": "SN12C renal"}, "[4]": {"test_system": "SF-268 CNS"}, "[5]": {"test_system": "UACC-62 melanoma"}, "[6]": {"test_system": "LOX IMVI melanoma"}, "[7]": {"test_system": "OVCAR-4 ovarian"}, "[8]": {"test_system": "HOP-62 NSCLC"}, "[9]": {"test_system": "HT29 colon"}},
  "note": "Where “and” joins values, the source holds several entries; their conditions need not be identical. Identical values can stand only once.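 Tested at 5 concentrations; 48 h exposure; 96-well plates; endpoints linearly interpolated, else capped at highest concentration. GI50 is the concentration that inhibits growth by half. At the TGI there is no net growth.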",
  "data": [
    {"smiles": "NS(=O)(=O)c1ccc(-n2nc(-c3ccc(Cl)cc3)cc2-c2cc(O)ccc2O)cc1", "values": [
      {"measurement": "GI50", "setting": "[1]", "value": 11.7, "unit": "µM"},
      {"measurement": "TGI", "setting": "[1]", "value": 28, "unit": "µM"},
      {"measurement": "GI50", "setting": "[2]", "value": 18.3, "unit": "µM"},
      {"measurement": "TGI", "setting": "[2]", "value": 34.6, "unit": "µM"},
      {"measurement": "GI50", "setting": "[3]", "value": 8.11, "unit": "µM"},
      {"measurement": "TGI", "setting": "[3]", "value": 20.6, "unit": "µM"},
      {"measurement": "GI50", "setting": "[4]", "value": 10.5, "unit": "µM"},
      {"measurement": "TGI", "setting": "[4]", "value": 26.2, "unit": "µM"},
      {"measurement": "GI50", "setting": "[5]", "value": 7.3, "unit": "µM"},
      {"measurement": "TGI", "setting": "[5]", "value": 19.2, "unit": "µM"}
    ]},
    {"smiles": "CN(O)C(=O)SCC(NC(=O)CCC(N)C(=O)O)C(=O)NCC(=O)O", "note": "(stereo not given)", "values": [
      {"measurement": "GI50", "setting": "[2]", "value": "> 2000", "unit": "µM"},
      {"measurement": "TGI", "setting": "[2]", "value": "> 2000", "unit": "µM"},
      {"measurement": "GI50", "setting": "[3]", "value": "> 2000", "unit": "µM"},
      {"measurement": "TGI", "setting": "[3]", "value": "> 2000", "unit": "µM"},
      {"measurement": "GI50", "setting": "[6]", "value": 668, "unit": "µM"},
      {"measurement": "TGI", "setting": "[6]", "value": "> 2000", "unit": "µM"},
      {"measurement": "GI50", "setting": "[7]", "value": "> 2000", "unit": "µM"},
      {"measurement": "TGI", "setting": "[7]", "value": "> 2000", "unit": "µM"},
      {"measurement": "GI50", "setting": "[4]", "value": "> 2", "unit": "µM"},
      {"measurement": "TGI", "setting": "[4]", "value": "> 2000", "unit": "µM"},
      {"measurement": "GI50", "setting": "[8]", "value": "> 2000", "unit": "µM"},
      {"measurement": "TGI", "setting": "[8]", "value": "> 2 µM and 313 µM and > 2000 µM"},
      {"measurement": "GI50", "setting": "[5]", "value": "> 2000", "unit": "µM"},
      {"measurement": "TGI", "setting": "[5]", "value": "> 2000", "unit": "µM"},
      {"measurement": "GI50", "setting": "[9]", "value": "> 2000", "unit": "µM"},
      {"measurement": "TGI", "setting": "[9]", "value": "> 2000", "unit": "µM"}
    ]},
    {"smiles": "CCOC(=O)C12CCCC1(O)N(NC(=O)OC(C)(C)C)C(C)=C2C(=O)OC", "note": "(stereo not given)", "values": [
      {"measurement": "TGI", "setting": "[2]", "value": "> 100", "unit": "µM"},
      {"measurement": "TGI", "setting": "[3]", "value": "> 100", "unit": "µM"},
      {"measurement": "TGI", "setting": "[6]", "value": "> 100", "unit": "µM"},
      {"measurement": "TGI", "setting": "[7]", "value": "> 100", "unit": "µM"},
      {"measurement": "TGI", "setting": "[4]", "value": "> 100", "unit": "µM"},
      {"measurement": "TGI", "setting": "[8]", "value": "> 100", "unit": "µM"},
      {"measurement": "TGI", "setting": "[5]", "value": "> 100", "unit": "µM"},
      {"measurement": "TGI", "setting": "[9]", "value": "> 100", "unit": "µM"}
    ]},
    {"smiles": "COC1=C(N)C(=O)c2nc(C)ccc2C1=O", "values": [
      {"measurement": "TGI", "setting": "[2]", "value": 2.95, "unit": "µM"},
      {"measurement": "TGI", "setting": "[3]", "value": 3.27, "unit": "µM"},
      {"measurement": "TGI", "setting": "[6]", "value": 2.49, "unit": "µM"},
      {"measurement": "TGI", "setting": "[7]", "value": 3.66, "unit": "µM"},
      {"measurement": "TGI", "setting": "[4]", "value": 4.17, "unit": "µM"},
      {"measurement": "TGI", "setting": "[8]", "value": 2.94, "unit": "µM"},
      {"measurement": "TGI", "setting": "[5]", "value": 3.2, "unit": "µM"},
      {"measurement": "TGI", "setting": "[9]", "value": 3.74, "unit": "µM"}
    ]},
    {"smiles": "O=C(COc1ccc(Cl)cc1)N1N=C(c2ccc(Cl)cc2)CC1(O)c1ccccc1", "note": "(stereo not given)", "values": [
      {"measurement": "TGI", "setting": "[2]", "value": 33.9, "unit": "µM"},
      {"measurement": "TGI", "setting": "[3]", "value": 11.4, "unit": "µM"},
      {"measurement": "TGI", "setting": "[6]", "value": 26.6, "unit": "µM"},
      {"measurement": "TGI", "setting": "[7]", "value": 21, "unit": "µM"},
      {"measurement": "TGI", "setting": "[4]", "value": "> 100", "unit": "µM"},
      {"measurement": "TGI", "setting": "[8]", "value": 57, "unit": "µM"},
      {"measurement": "TGI", "setting": "[5]", "value": 41.6, "unit": "µM"},
      {"measurement": "TGI", "setting": "[9]", "value": 26.3, "unit": "µM"}
    ]}
  ]
}
